This is an account of results in article PMC6238727 (2018).

In data set [1] the test system is Thrombin. As to the kind of experiment: Recombinant human Thrombin at 5U/ml.
The next data set has as its system Neutrophil elastase. As to the kind of experiment: Neutrophil elastase at 30 nM. The conditions noted are these: human, up to 12 min.
Data set [2] concerns MMP-2. The data set is described as follows: Recombinant human catalytic domain MMP-2 at 30nM.
Data set [3] can be described thus: human tissue homogenate (healthy and fibrotic lung tissue).
Data set [4] has as its system MMP-13. As to the kind of experiment: Recombinant human catalytic domain MMP-13 at 30nM.
Data set [5] concerns plasmin. As to the kind of experiment: plasmin.
The nature of data set [6]: healthy (homogenised) human lung tissue.
For data set [7], the system named is thrombin. The data set is described as follows: thrombin (Sigma Aldrich) (5 U ml^–1) in MMP buffer (10 mM CaCl2, Tris-HCl, NaCl, pH 7.5). The conditions noted are these: human, up to 60 min.
The test system of the next data set is MMP. As to the kind of experiment: incubation with MMP (which MMP is not given). The conditions noted are these: up to 10 min.
Data set [8] in a line: platelet rich plasma (PRP) collected from the LPS murine model.
A further data set relates to MMP-9 + Thrombin. As to the kind of experiment: MMP-9 + Thrombin together in MMP buffer. The conditions noted are these: human, up to 60 min.
The subject of data set [9] is Plasmin. The data set is described as follows: Plasmin (Sigma Aldrich) (30 nM) in MMP buffer. Particulars: up to 60 min.
For another data set, the system named is MMP-9. As to the kind of experiment: recombinant MMP enzymes (active domains), 30 nM, in MMP buffer. Particulars: human, up to 60 min.
A further data set has as its system Factor Xa. The data set is described as follows: Factor Xa (Sigma Aldrich) (500 nM) in MMP buffer. The conditions noted are these: up to 60 min.
In data set [10] the test system is MMP-2. As to the kind of experiment: recombinant MMP enzymes (active domains), 30 nM, in MMP buffer. Particulars: up to 60 min.
The nature of data set [11]: excised human carotid (atherosclerotic) plaque, sliced in half lengthwise, in a well with probe solution. The conditions noted are these: up to 60 min.
The test system of data set [12] is MMP-13. The data set is described as follows: recombinant MMP enzymes (active domains), 30 nM, in MMP buffer. Particulars: up to 60 min.
Data set [13] is described as follows: lavage fluid collected from the LPS murine model.

Entries after “also recorded” stand apart in the source; their conditions may differ.

-G-P-K-G-Ile-K-G-: the not cleaved result in the data set on Thrombin [1] is recorded as “Thrombin did not cleave any of the sequences”. In the data set on Neutrophil elastase, the cleaved bond entry is listed as “I-K”.
With -G-P-K-G-L-K-G-, the cleaved bond result was “G-L” in the data set on MMP-2 [2], “G-L” in data set [3], “G-L” in the data set with MMP-13 [4] and “K-G” with plasmin [5]. For the same substance, the not cleaved entry in the data set with Thrombin [1] was “not cleaved with Thrombin”; in the data set with Neutrophil elastase, “stable to Elastase”; in the data set “neutrophil lysate”, “not cleaved with Neutrophil lysate”.
As for -P-Cha-G-M-F-G-, the not cleaved result is recorded as “Thrombin did not cleave any of the sequences” with Thrombin [1] and “remained intact” in the data set with Neutrophil elastase.
As to -P-Cha-G-M-H-G-, the not cleaved result is given as “Thrombin did not cleave any of the sequences” in the data set with Thrombin [1] and “remained intact” in the data set with Neutrophil elastase.
Take -P-Cha-G-M-K-G-: the not cleaved result in the data set on Thrombin [1] is listed as “Thrombin did not cleave any of the sequences”; with Neutrophil elastase, “remained intact”.
For the substance -P-Cha-G-M-K-ßA-G-, the not cleaved entry was “Thrombin did not cleave any of the sequences” in the data set on Thrombin [1] and “remained intact” in the data set with Neutrophil elastase.
As for -P-Cha-G-M-W-G-, the not cleaved result with Thrombin [1] is listed as “Thrombin did not cleave any of the sequences”; with Neutrophil elastase, “remained intact”.
For -P-Cha-G-M-Y(Me)-G- the same measures were “Thrombin did not cleave any of the sequences” and “remained intact”.
-P-Cha-G-M-Y-G-: the not cleaved entry with Thrombin [1] is given as “Thrombin did not cleave any of the sequences”; in the data set on Neutrophil elastase it was “remained intact”.
Regarding -P-F-G-Ile-K-ßA-, in the data set with Thrombin [1], the not cleaved result is “Thrombin did not cleave any of the sequences”. Also, the cleaved bond entry with Neutrophil elastase is on record as “I-K”.
Regarding -P-F-G-L-K-ßA-, the not cleaved result is on record as “Thrombin did not cleave any of the sequences” in the data set on Thrombin [1] and “remained intact” with Neutrophil elastase.
On to -P-F-G-M-K-ßA-, for which the not cleaved result in the data set with Thrombin [1] is listed as “Thrombin did not cleave any of the sequences”; with Neutrophil elastase, “remained intact”.
For -P-F-G-Nle-K-ßA-, the cleaved bond entry (in the data set with MMP-2 [2]; in data set [3]; in the data set on MMP-13 [4]) was “G-Nle” in each case. Further, the not cleaved result in the data set with plasmin [5] is on record as “totally plasmin resistant”; with Thrombin [1], “not cleaved with Thrombin”; in the data set on Neutrophil elastase it was “stable to Elastase”; in “neutrophil lysate”, “not cleaved with Neutrophil lysate”.
As to “PFGNleKA attached to the hydrophilic tail -[PEG2-(D)K]3-NH2”, in data set [6], the not cleaved entry is “good solubility and stability as confirmed by MALDI TOF MS and HPLC analysis”.
“–NleWP(D)RGWR(D)L– | –PFGNleKβA– | –K-PEG2–”: in the data set on thrombin [7], the not cleaved entry is recorded as “not activated by their target enzymes”.
As for “–NleWPRGWR(D)L– | –PFG(D)NleKβA– | –K-PEG2–”, the not cleaved entry with MMP is given as “not activated by their target enzymes”.
As for “–NleWPRGWR(D)L– | –PFGNleKβA– | –K-PEG2–”, the not cleaved result was “not cleaved by murine proteolytic (MMP and Thrombin) enzymes” in data set [8]; “completely plasmin and Factor Xa resistant” in the data set on Plasmin [9]; “completely plasmin and Factor Xa resistant” in the data set with Factor Xa; “not cleaved by murine proteolytic (MMP and Thrombin) enzymes” in [13]. Besides, the cleaved bond entry in the data set on MMP-9 + Thrombin is given as “Arg-Gly; also recorded: Gly-Nle”; in the data set with thrombin [7] it was “Arg-Gly”; with MMP-9 it was “Gly-Nle”; in the data set on MMP-2 [10], “Gly-Nle”; in [11] it was “Arg-Gly; also recorded: Gly-Nle”; in the data set with MMP-13 [12], “Gly-Nle”.
